Assay results published in US20110306541A1, “METHODS FOR TREATING HCV” (priority 2010, published 2011).
One block for each compound: values may come before it.

Assays:
[1] = system: HCV 1b replicon; assay: Renilla luciferase (RLuc)-based HCV replicon reporter assay - HCV 1b RLuc; assay type: cell-based; details: Hepatitis C virus; Table I; HCV 1b RLuc replicon
[2] = Drug-drug interaction on co-administration; assay type: in vivo
[3] = Bilirubin elevations related to dose of Compound 3; assay type: in vivo, human; details: doses above 400 mg
[4] = Exposure (AUC) corresponding to dose; assay type: in vivo, human; details: for AUC: human, in vivo

SMILES: COC(=O)N[C@H](C(=O)N1CCC[C@H]1c1ncc(-c2ccc3cc(-c4ccc(-c5cnc([C@@H]6CCCN6C(=O)[C@H](NC(=O)OC)c6ccccc6)[nH]5)cc4)ccc3c2)[nH]1)C(C)C
EC50 [1]: 8.1 pM

SMILES: COC(=O)N[C@H](C(=O)N1CCC[C@H]1c1ncc(-c2ccc3cc4cc(-c5cnc([C@@H]6CCCN6C(=O)[C@@H](NC(=O)OC)C(C)C)[nH]5)ccc4cc3c2)[nH]1)C(C)C
EC50 [1]: 7 pM

SMILES: COC(=O)N[C@H](C(=O)N1CCC[C@H]1c1nc(C#Cc2ccc3cc(-c4cnc([C@@H]5CC(F)(F)CN5C(=O)[C@@H](NC(=O)OC)C(C)C)[nH]4)ccc3c2)c[nH]1)C(C)C
EC50 [1]: 14.7 pM

SMILES: COC(=O)N[C@H](C(=O)N1CCC[C@H]1c1ncc(C#CC2=CC3SC(c4cnc([C@@H]5CCCN5C(=O)[C@@H](NC(=O)OC)C(C)C)[nH]4)=CC3S2)[nH]1)C(C)C (stereo partly drawn)
EC50 [1]: 50.3 pM

SMILES: COC(=O)N[C@H](C(=O)N1CCC[C@H]1c1ncc(-c2cc3cc4sc(-c5cnc([C@@H]6CCCN6C(=O)[C@@H](NC(=O)OC)C(C)C)[nH]5)cc4cc3s2)[nH]1)C(C)C
EC50 [1]: 7.7 pM

increase of the exposure of Compound 1 ([2]; co-administered with Compound 2): 2-3 ×
SMILES: Fc1ccccc1-c1nc2ccn(Cc3ccc(-c4ccc(C(F)(F)F)cc4C(F)(F)F)nn3)cc-2n1 [Compound 1, 5-((6-(2,4-bis(trifluoromethyl)phenyl)pyridazin-3-yl)methyl)-2-(2-fluorophenyl)-5H-imidazo[4,5-c]pyridine]
effect on drug metabolizing systems ([2]; in vivo): it does not appear that Compound 1 affects drug metabolizing systems

bilirubin elevations [3]: more bilirubin elevations in some cases | AUC ([4]; 10 mg dose): 272 ng·h/mL | AUC ([4]; 1000 mg dose): 48400 ng·h/mL
SMILES: CC[C@@H]1C[C@]1(NC(=O)[C@@H]1C[C@@H](Oc2cc(-c3csc(NC(C)C)n3)nc3c(Cl)c(OCCN4CCOCC4)ccc23)CN1C(=O)[C@@H](NC(=O)O[C@@H]1C[C@@H]2C[C@@H]2C1)C(C)(C)C)C(=O)O [Compound 3]

exposure ([4]; 3 mg dose): 32.3 ng·h/mL | exposure ([4]; 30 mg dose): 1415.2 ng·h/mL | exposure ([4]; 90 mg dose): 4137.9 ng·h/mL | exposure ([4]; 100 mg dose): 11166.6 ng·h/mL | exposure ([4]; 300 mg dose): 38900 ng·h/mL
SMILES: COC(=O)NC(C(=O)N1CC2(CC2)CC1c1ncc(-c2ccc3c(c2)C(F)(F)c2cc(-c4ccc5nc(C6C7CCC(C7)N6C(=O)C(NC(=O)OC)C(C)C)[nH]c5c4)ccc2-3)[nH]1)C(C)C (stereo not drawn) [Compound 16, (1-{3-[6-(9,9-Difluoro-7-{2-[5-(2-methoxycarbonylamino-3-methyl-butyryl)-5-aza-spiro[2.4]hept-6-yl]-3H-imidazol-4-yl}-9H-fluoren-2-yl)-1H-benzoimidazol-2-yl]-2-aza-bicyclo[2.2.1]heptane-2-carbonyl}-2-methyl-propyl)-carbamic acid methyl ester]
